Measurements from PubChem BioAssay AID246 (DTP/NCI, 2004).
Where “and” joins values, the source holds several entries; their conditions need not be identical. Identical values can stand only once. Inconclusive results and toxic doses are left out.

Test system: BDF1 mice, P1081 chloroleukemia ip, survival T/C
Experiment: NCI In Vivo Anticancer Drug Screen. Data for tumor model P1081 Chloroleukemia (intraperitoneal) in B6D2F1 (BDF1) mice
Conditions: endpoint: mean survival time, higher = longer survival
Procedure: The antitumor activity of compounds was measured in mice bearing transplantable tumors. Survival or tumor size were measured and the results are expressed as the measurement made in the treated group (T) divided by the measurement made in the vehicle treated control group (C). The tumor model used in this assay is P1081 Chloroleukemia (intraperitoneal) in B6D2F1 (BDF1) mice

[1] = dose: 6.25 mg/kg/injection, schedule: Q01DX010 (ip), vehicle: saline
[2] = dose: 12.5 mg/kg/injection, schedule: Q01DX010 (ip), vehicle: saline
[3] = dose: 25.0 mg/kg/injection, schedule: Q01DX010 (ip), vehicle: saline
[4] = dose: 62.5 mg/kg/injection, schedule: Q01DX Z (ip), vehicle: carboxymethylcellulose (CMC)
[5] = dose: 1.25 mg/kg/injection, schedule: Q01DX Z (ip), vehicle: carboxymethylcellulose (CMC)
[6] = dose: 5.0 mg/kg/injection, schedule: Q01DX Z (ip), vehicle: carboxymethylcellulose (CMC)

## O=NN(CCCl)C(=O)NCCCl
dose: 1.0 mg/kg/injection, schedule: Q01DX Z (ip), vehicle: saline
  T/C: 95 % of control
dose: 2.0 mg/kg/injection, schedule: Q01DX Z (ip), vehicle: saline
  T/C: 112 % of control and 96 % of control
dose: 3.13 mg/kg/injection, schedule: Q01DX010 (ip), vehicle: saline
  T/C: 220 % of control
dose: 4.0 mg/kg/injection, schedule: Q01DX Z (ip), vehicle: saline
  T/C: 114 % of control and 116 % of control
[1]
  T/C: 290 % of control and 300 % of control
dose: 8.0 mg/kg/injection, schedule: Q01DX Z (ip), vehicle: saline
  T/C: 118 % of control
[2]
  T/C: 150 % of control
dose: 16.0 mg/kg/injection, schedule: Q01DX Z (ip), vehicle: saline
  T/C: 92 % of control

## [I][Hg][CH2]C1COC([CH2][Hg][I])CO1 (stereo unspecified)
[1]
  T/C: 110 % of control
dose: 7.5 mg/kg/injection, schedule: Q01DX Z (ip), vehicle: carboxymethylcellulose (CMC)
  T/C: 97 % of control
[2]
  T/C: 95 % of control
dose: 15.0 mg/kg/injection, schedule: Q01DX Z (ip), vehicle: carboxymethylcellulose (CMC)
  T/C: 119 % of control
[3]
  T/C: 90 % of control
dose: 60.0 mg/kg/injection, schedule: Q01DX Z (ip), vehicle: carboxymethylcellulose (CMC)
  T/C: 88 % of control and 103 % of control

## CN(C)c1nc(N(C)C)nc(N(C)C)n1
dose: 16.0 mg/kg/injection, schedule: Q01DX Z (ip), vehicle: carboxymethylcellulose (CMC)
  T/C: 95 % of control
dose: 18.8 mg/kg/injection, schedule: Q01DX010 (ip), vehicle: saline
  T/C: 116 % of control and 100 % of control
dose: 31.0 mg/kg/injection, schedule: Q01DX Z (ip), vehicle: carboxymethylcellulose (CMC)
  T/C: 92 % of control
dose: 37.5 mg/kg/injection, schedule: Q01DX010 (ip), vehicle: saline
  T/C: 116 % of control and 100 % of control
[4]
  T/C: 88 % of control
dose: 63.0 mg/kg/injection, schedule: Q01DX Z (ip), vehicle: carboxymethylcellulose (CMC)
  T/C: 123 % of control
dose: 75.0 mg/kg/injection, schedule: Q01DX010 (ip), vehicle: saline
  T/C: 116 % of control and 105 % of control
dose: 150.0 mg/kg/injection, schedule: Q01DX010 (ip), vehicle: saline
  T/C: 111 % of control and 100 % of control

## CCN(CC)C(=S)S
dose: 125.0 mg/kg/injection, schedule: Q01DX Z (ip), vehicle: other
  T/C: 99 % of control
dose: 250.0 mg/kg/injection, schedule: Q01DX Z (ip), vehicle: other
  T/C: 96 % of control
dose: 1000.0 mg/kg/injection, schedule: Q01DX Z (ip), vehicle: other
  T/C: 102 % of control

## CS(=O)(=O)OCC(O)C(O)COS(C)(=O)=O (stereo unspecified)
dose: 94.0 mg/kg/injection, schedule: Q01DX Z (ip), vehicle: saline
  T/C: 86 % of control
dose: 188.0 mg/kg/injection, schedule: Q01DX Z (ip), vehicle: saline
  T/C: 107 % of control
dose: 375.0 mg/kg/injection, schedule: Q01DX Z (ip), vehicle: saline
  T/C: 95 % of control
dose: 750.0 mg/kg/injection, schedule: Q01DX Z (ip), vehicle: saline
  T/C: 122 % of control
dose: 1500.0 mg/kg/injection, schedule: Q01DX Z (ip), vehicle: saline
  T/C: 166 % of control
dose: 3000.0 mg/kg/injection, schedule: Q01DX Z (ip), vehicle: saline
  T/C: 173 % of control

## O=C1CCC(N2C(=O)c3ccccc3C2=O)C(=O)N1 (stereo unspecified)
dose: 18.75 mg/kg/injection, schedule: Q01DX Z (ip), vehicle: carboxymethylcellulose (CMC)
  T/C: 89 % of control
dose: 37.5 mg/kg/injection, schedule: Q01DX Z (ip), vehicle: carboxymethylcellulose (CMC)
  T/C: 98 % of control
dose: 75.0 mg/kg/injection, schedule: Q01DX Z (ip), vehicle: carboxymethylcellulose (CMC)
  T/C: 94 % of control
dose: 150.0 mg/kg/injection, schedule: Q01DX Z (ip), vehicle: carboxymethylcellulose (CMC)
  T/C: 94 % of control

## O=C(Nc1ccc(C2=NCCN2)cc1)c1ccc(C(=O)Nc2ccc(C3=NCCN3)cc2)c([N+](=O)[O-])c1
dose: 6.0 mg/kg/injection, schedule: Q01DX010 (ip), vehicle: saline
  T/C: 260 % of control and 288 % of control
dose: 8.0 mg/kg/injection, schedule: Q01DX010 (ip), vehicle: saline
  T/C: 285 % of control and 311 % of control
dose: 12.0 mg/kg/injection, schedule: Q01DX010 (ip), vehicle: saline
  T/C: 166 % of control and 250 % of control
dose: 18.0 mg/kg/injection, schedule: Q01DX010 (ip), vehicle: saline
  T/C: 120 % of control and 122 % of control

## NC(Cc1ccc(N(CCCl)CCCl)cc1)C(=O)O (stereo unspecified)
[5]
  T/C: 115 % of control
dose: 2.5 mg/kg/injection, schedule: Q01DX010 (ip), vehicle: saline
  T/C: 150 % of control and 333 % of control
dose: 5.0 mg/kg/injection, schedule: Q01DX010 (ip), vehicle: saline
  T/C: 327 % of control
[6]
  T/C: 189 % of control
dose: 10.0 mg/kg/injection, schedule: Q01DX010 (ip), vehicle: saline
  T/C: 90 % of control
dose: 10.0 mg/kg/injection, schedule: Q01DX Z (ip), vehicle: carboxymethylcellulose (CMC)
  T/C: 90 % of control

## O=C(Nc1ccc(C2=NCCN2)cc1)c1ccc(C(=O)Nc2ccc(C3=NCCN3)cc2)c(Cl)c1
dose: 1.8 mg/kg/injection, schedule: Q01DX Z (ip), vehicle: water
  T/C: 97 % of control
dose: 7.5 mg/kg/injection, schedule: Q01DX Z (ip), vehicle: water
  T/C: 97 % of control
dose: 60.0 mg/kg/injection, schedule: Q01DX Z (ip), vehicle: water
  T/C: 86 % of control

## Clc1ncnc2nc[nH]c12
dose: 7.5 mg/kg/injection, schedule: Q01DX010 (ip), vehicle: saline
  T/C: 110 % of control and 90 % of control
dose: 15.0 mg/kg/injection, schedule: Q01DX010 (ip), vehicle: saline
  T/C: 90 % of control and 100 % of control
dose: 30.0 mg/kg/injection, schedule: Q01DX010 (ip), vehicle: saline
  T/C: 110 % of control and 95 % of control
dose: 31.25 mg/kg/injection, schedule: Q01DX Z (ip), vehicle: carboxymethylcellulose (CMC)
  T/C: 98 % of control
dose: 60.0 mg/kg/injection, schedule: Q01DX010 (ip), vehicle: saline
  T/C: 110 % of control and 104 % of control
[4]
  T/C: 107 % of control and 105 % of control
dose: 125.0 mg/kg/injection, schedule: Q01DX Z (ip), vehicle: carboxymethylcellulose (CMC)
  T/C: 114 % of control and 121 % of control
dose: 250.0 mg/kg/injection, schedule: Q01DX Z (ip), vehicle: carboxymethylcellulose (CMC)
  T/C: 86 % of control and 94 % of control

## CCN(CC)c1ccc2cc3ccc(=[N+](CC)CC)cc-3oc2c1
dose: 0.31 mg/kg/injection, schedule: Q01DX Z (ip), vehicle: carboxymethylcellulose (CMC)
  T/C: 101 % of control
dose: 0.63 mg/kg/injection, schedule: Q01DX Z (ip), vehicle: carboxymethylcellulose (CMC)
  T/C: 98 % of control
[5]
  T/C: 108 % of control
dose: 2.5 mg/kg/injection, schedule: Q01DX Z (ip), vehicle: carboxymethylcellulose (CMC)
  T/C: 105 % of control and 114 % of control
[6]
  T/C: 96 % of control

## O=P1(N(CCCl)CCCl)NCCCO1 (stereo unspecified)
dose: 3.12 mg/kg/injection, schedule: Q01DX Z (ip), vehicle: saline
  T/C: 110 % of control
dose: 6.25 mg/kg/injection, schedule: Q01DX Z (ip), vehicle: saline
  T/C: 119 % of control
dose: 6.3 mg/kg/injection, schedule: Q01DX Z (ip), vehicle: saline
  T/C: 102 % of control
dose: 11.3 mg/kg/injection, schedule: Q01DX010 (ip), vehicle: saline
  T/C: 113 % of control and 117 % of control (2×)
dose: 22.5 mg/kg/injection, schedule: Q01DX010 (ip), vehicle: saline
  T/C: 107 % of control and 120 % of control and 121 % of control
dose: 45.0 mg/kg/injection, schedule: Q01DX010 (ip), vehicle: saline
  T/C: 105 % of control and 107 % of control
dose: 90.0 mg/kg/injection, schedule: Q01DX010 (ip), vehicle: saline
  T/C: 105 % of control and 90 % of control
dose: 100.0 mg/kg/injection, schedule: Q01DX Z (ip), vehicle: saline
  T/C: 115 % of control
dose: 180.0 mg/kg/injection, schedule: Q01DX010 (ip), vehicle: saline
  T/C: 87 % of control

## COc1cc(-c2ccc(Nc3ccccc3C(=O)O)c(OC)c2)ccc1Nc1ccccc1C(=O)O
[2]
  T/C: 116 % of control
[3]
  T/C: 122 % of control

## O[C@H](CN1CC1)[C@@H](O)CN1CC1
dose: 0.12 mg/kg/injection, schedule: Q01DX Z (ip), vehicle: carboxymethylcellulose (CMC)
  T/C: 193 % of control
dose: 0.25 mg/kg/injection, schedule: Q01DX Z (ip), vehicle: carboxymethylcellulose (CMC)
  T/C: 204 % of control
dose: 0.5 mg/kg/injection, schedule: Q01DX Z (ip), vehicle: carboxymethylcellulose (CMC)
  T/C: 117 % of control
dose: 16.0 micrograms/kg/injection, schedule: Q01DX Z (ip), vehicle: carboxymethylcellulose (CMC)
  T/C: 100 % of control
dose: 62.5 micrograms/kg/injection, schedule: Q01DX010 (ip), vehicle: saline
  T/C: 316 % of control
dose: 125.0 micrograms/kg/injection, schedule: Q01DX010 (ip), vehicle: saline
  T/C: 210 % of control and 261 % of control
dose: 125.0 micrograms/kg/injection, schedule: Q01DX Z (ip), vehicle: carboxymethylcellulose (CMC)
  T/C: 157 % of control
dose: 250.0 micrograms/kg/injection, schedule: Q01DX010 (ip), vehicle: saline
  T/C: 288 % of control
dose: 500.0 micrograms/kg/injection, schedule: Q01DX010 (ip), vehicle: saline
  T/C: 150 % of control and 177 % of control
